Assay results: US4251628A, “Substrates for angiotensin converting enzyme” (priority 1978, dated 1981)
Like-named read-outs stand apart in the source and are kept apart here. Ends that are not written are not given here. Peptide text beside a SMILES is read from it.

Tests used:
[1] = target: T1, angiotensin converting enzyme (ACE) (Homo sapiens, UniProt P12821); experiment: Hydrolysis of ^3H-BenzoylProPheArg by normal human serum: effect of various compounds; assay type: biochemical; conditions: ^3H-BenzoylProPheArg substrate
T1 construct: Serum was prepared from fresh whole blood by standard techniques; from tissue; host or cells: serum (unfractionated)
T1 sequence (P12821 30-1232 limits assumed): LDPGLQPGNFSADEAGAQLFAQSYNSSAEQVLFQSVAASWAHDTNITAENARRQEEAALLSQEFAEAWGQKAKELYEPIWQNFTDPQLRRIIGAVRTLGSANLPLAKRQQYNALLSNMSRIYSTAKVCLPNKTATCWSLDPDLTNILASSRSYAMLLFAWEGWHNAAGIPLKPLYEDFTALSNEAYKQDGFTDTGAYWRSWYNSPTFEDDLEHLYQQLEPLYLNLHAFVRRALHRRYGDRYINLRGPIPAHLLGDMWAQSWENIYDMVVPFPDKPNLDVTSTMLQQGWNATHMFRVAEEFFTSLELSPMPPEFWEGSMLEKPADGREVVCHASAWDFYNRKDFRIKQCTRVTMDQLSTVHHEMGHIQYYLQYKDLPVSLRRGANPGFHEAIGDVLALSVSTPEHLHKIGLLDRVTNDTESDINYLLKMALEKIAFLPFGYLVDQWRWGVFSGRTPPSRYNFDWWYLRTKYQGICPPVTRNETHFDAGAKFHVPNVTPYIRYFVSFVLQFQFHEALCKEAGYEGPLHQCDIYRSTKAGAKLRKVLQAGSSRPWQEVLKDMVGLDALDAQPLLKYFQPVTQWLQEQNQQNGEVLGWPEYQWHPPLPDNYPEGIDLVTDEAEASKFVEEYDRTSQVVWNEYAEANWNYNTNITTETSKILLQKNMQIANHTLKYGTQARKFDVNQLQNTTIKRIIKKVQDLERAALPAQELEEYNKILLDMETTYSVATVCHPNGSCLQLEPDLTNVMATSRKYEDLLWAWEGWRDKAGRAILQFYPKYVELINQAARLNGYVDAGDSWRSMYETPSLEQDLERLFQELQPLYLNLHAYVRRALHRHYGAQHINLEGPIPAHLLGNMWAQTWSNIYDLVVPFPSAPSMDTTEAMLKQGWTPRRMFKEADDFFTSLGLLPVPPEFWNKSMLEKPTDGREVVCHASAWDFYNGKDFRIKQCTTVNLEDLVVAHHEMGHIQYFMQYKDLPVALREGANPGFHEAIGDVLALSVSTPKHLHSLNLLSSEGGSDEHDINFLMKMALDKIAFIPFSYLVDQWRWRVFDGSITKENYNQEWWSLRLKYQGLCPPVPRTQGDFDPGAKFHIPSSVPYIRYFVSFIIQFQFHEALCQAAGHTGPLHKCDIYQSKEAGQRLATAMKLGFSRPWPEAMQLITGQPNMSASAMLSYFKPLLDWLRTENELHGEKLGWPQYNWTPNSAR
Protocol: Hydrolysis of […] ^3 H-BenzoylProPheArg using the standard reaction procedure of Example 1 with normal human serum as the ACE source was measured in the absence and in the presence of competing substrates and an inhibitor.

[2] = target: T2, serum angiotensin converting enzyme (ACE) (Homo sapiens, UniProt P12821); experiment: biochemical; assay type: biochemical; conditions: for Mode of inhibition (in words): ACE catalyzed hydrolysis of ^3H-HipGlyGly; for ACE Activity as % of control: 60 min
T2 construct: the activity observed with the present assay method in human serum is identical to ACE; from tissue; host or cells: human serum (unfractionated)
T2 sequence (P12821 30-1232 limits assumed): as above
Protocol: The reaction buffer contains 0.05 M Hepes, 0.1 M sodium chloride and 0.6 M sodium sulphate at pH 8.0. (Pepes is N-2-Hydroxyethyl piperazine N'-2-ethane sulfonic acid.) The substrate, ^3 H-HipGlyGly was dissolved in reaction buffer at a concentration of 16 mM and a specific radioactivity of about 0.15 millicuries/millimole. Serum was prepared from fresh whole blood by standard techniques. […] Hemolyzed samples were not used in the assay. […] For the assay, 50 μl. of serum was diluted with 200 μl. of reaction buffer. All the reactions were carried out in glass tubes due to the potentially destructive action of ethyl acetate on plastic.
(§1) The reaction mixture was composed of 50 μl. of diluted serum, an appropriate amount of substrate solution depending on the final substrate concentration desired, and reaction buffer sufficient to give a total reaction volume of 100 μl. All reaction tubes were incubated for 60 minutes at 37° C. Reactions were terminated by the addition of 1.0 ml. of 0.1 N hydrochloric acid. The reaction mixture was then extracted with 1.0 ml. ethyl acetate, by rotary agitation for 4-5 seconds. The phases were separted by centrifugation at 1000×G for ten minutes. A 0.5 ml. sample of the ethyl acetate (upper) layer was removed and tranferred to a scintillation vial containing 10 ml. scintillation fluid. (Riafluor, Trademark, New England Nuclear Corp., Boston, Mass.)
A control determination of background radioactivity was made using 50 μl. of reaction buffer instead of diluted serum in the reaction mixture. The purpose of this control was to determine the number of total counts attributable to background radiation, non-specific release of hippuric acid and the presence of unreacted substrate in the ethyl acetate phase. […] Total radioactivity was determined by counting an amount of substrate equal to that used in the reaction mixture directly in the scintillation counter.
(§2) Reaction velocity, in terms of nanomoles of product formed per minute per ml of serum was calculated according to the following formula: [formula] In this formula, "nmoles" means nanomoles, "min" means minutes, "ml" means milliliters and "cpm" means radioactivity counts per minute. The factor of 2 is a correction for the aliquot size.
In this series of reactions, the procedure described in Ex. 1 was followed except that the substrate concentration was 8 mM throughout and specific inhibitor substances were added at the indicated final concentration. Bradykinin, angiotensin I, BPP5α and EDTA have been described hereinabove. BPP9α (SQ20881) is a nonapeptide from snake venom having the sequence <GluTryProArgProGlnIleProPro.
*Standard assay conditions as described in Example 1 were used.
**ΔCPM = (CPM of compound CPM of Blank)

[3] = system: angiotensin converting enzyme (ACE); conditions: buffer component / additive; cited from earlier work
[4] = system: angiotensin converting enzyme (ACE); experiment: ACE-catalyzed hydrolysis: Km, pH, chloride and buffer dependence; assay type: biochemical
Source text: (§3) Reaction conditions optimal for carrying out an ACE catalyzed hydrolysis of a substrate of the present invention are the same as have been previously described for substrates known in the prior art. Detailed studies of optimal conditions using HipGlyGly as substrate have been reported by Dorer, et al. The pH optimum is approximately 8.0 although greater than 50% maximal activity is obtained in the pH range 7.0-9.0, in the presence of 1 M NaCl. […] The relationship between the chloride requirement and the ionic strength requirement has not been fully characterized. […] Phosphate is inhibitory. Hepes, bicine and barbital buffers are suitable for use but Hepes is preferred because it provides maximum activity. Preferred conditions of buffer composition, ionic strength, pH and temperature are described in Example 1. […] The pH range for usable enzyme activity is from pH 6.5 to pH 8.7, with a broad plateau of maximal activity ranging from pH 7.2 to pH 8.5. Optimal substrate concentration depends upon the apparent Km, for the substrate compared with the Km's of possible competing substances in the sample. A substrate having a relatively low Km, such as ^3 H-benzoylProPheArg (Km 2×10^-4 M) could be suitably used at a concentration less than its Km. A substrate having a higher Km might better be used at a concentration greater than its Km. […] Because its Km is the lowest of any of the substrates of the present invention, ^3 H-benzoylProPheArg is the most preferred substrate for assays where ACE activity is low and maximum sensitivity is desired. In addition to being less sensitive to competitive inhibition, assays carried out with this substrate are potentially able to measure lower levels of ACE than the other substrates disclosed herein. Additionally, its partition behavior in an aprotic organic solvent is extremely favorable: only about 3% entered ethyl acetate in a preliminary extraction experiment. The remnant product Benzoylproline was about 90% extracted.

[5] = Extraction (partition) into ethyl acetate; assay type: physicochemical
Source text: as §3
The remnant reaction product may be extracted from the reaction mixture by an aprotic organic solvent which affords a reasonably quantitative separation of product from substrate. The use of solvents which may interfere with the counting process is to be avoided. Ethyl acetate is preferred. Approximately 91% of ^3 H-Hippuric acid is extracted into ethyl acetate. Extraction may be carried out by any suitable means familiar to those skilled in the art, such as shaking, agitating, mixing and the like. Separation of the phases is conveniently accomplished by centrifugation. Centrifugation at 1000×G for ten minutes is preferred, either at room temperature or in a refrigerated centrifuge. In some cases, an emulsion will form which can be separated by a longer centrifugation step.
A control determination of background radioactivity was made using 50 μl. of reaction buffer instead of diluted serum in the reaction mixture. The purpose of this control was to determine the number of total counts attributable to background radiation, non-specific release of hippuric acid and the presence of unreacted substrate in the ethyl acetate phase. Less than 7% of the ^3 H-HipGly Gly entered the organic phase. Total radioactivity was determined by counting an amount of substrate equal to that used in the reaction mixture directly in the scintillation counter. […]

[6] = target: T1, angiotensin converting enzyme (ACE); experiment: ACE assay: hydrolysis of ^3H-HipGlyGly by human serum, Lineweaver-Burke Km; assay type: biochemical; conditions: when about 20% or more of the substrate has been hydrolyzed
Protocol: The following sample illustrates the preferred assay method, the sensitivity of the assay and the Km for ^3 H-HipGlyGly. The reaction buffer contains 0.05 M Hepes, 0.1 M sodium chloride and 0.6 M sodium sulphate at pH 8.0. (Pepes is N-2-Hydroxyethyl piperazine N'-2-ethane sulfonic acid.) The substrate, ^3 H-HipGlyGly was dissolved in reaction buffer at a concentration of 16 mM and a specific radioactivity of about 0.15 millicuries/millimole. Serum was prepared from fresh whole blood by standard techniques. […] Hemolyzed samples were not used in the assay. Serum samples could be stored at least for one week at 2° C. to 8° C. or for at least 8 weeks frozen, prior to assaying. For the assay, 50 μl. of serum was diluted with 200 μl. of reaction buffer. All the reactions were carried out in glass tubes due to the potentially destructive action of ethyl acetate on plastic.
as §1
A control determination of background radioactivity was made using 50 μl. of reaction buffer instead of diluted serum in the reaction mixture. The purpose of this control was to determine the number of total counts attributable to background radiation, non-specific release of hippuric acid and the presence of unreacted substrate in the ethyl acetate phase. Less than 7% of the ^3 H-HipGly Gly entered the organic phase. Total radioactivity was determined by counting an amount of substrate equal to that used in the reaction mixture directly in the scintillation counter.
as §2, with “size. In the case where a significant fraction of substrate has been hydrolyzed, and the substrate in one which is more soluble in the organic phase, as for example, ^125 I-HPPGlyGlyGly, a modified formula is used to take account of the decreasing amount of substrate as the reaction progresses: [formula]” for “size.”
Reciprocal values of initial substrate concentration and reaction velocity were calculated and graphed according to the method of Lineweaver and Burke, as shown in FIG. 1. A straight line was obtained, which intercepted the ordinate at a value equal to the reciprocal of the maximum velocity of the enzyme reaction and intercepted the abcissa at a value equal to the negative reciprocal of the apparent Michaelis constant. […] It can be seen that reaction velocities as low as 12 nanomoles of substrate hydrolyzed per minute per ml. of serum can readily be measured.

[7] = 1 h, read-out: ACE Activity as % of control

RPPGFSPFR [Bradykinin]
remaining activity at 82 µM ([1]; 8.2 × 10^-5 M, read-out: ACE Activity As % of Control): 21%
Δ CPM (counts per minute) ([2]; 2.7 × 10^-5 M, substrate 8 mM): 1553 counts per minute
Δ CPM (counts per minute) ([2]; 2.7 × 10^-6 M, substrate 8 mM): 3165 counts per minute
Δ CPM (counts per minute) ([2]; 2.7 × 10^-7 M, substrate 8 mM): 3267 counts per minute
remaining activity at 0.27 µM [2, 7]: 86%
remaining activity at 2.7 µM [2, 7]: 83%
remaining activity at 27 µM [2, 7]: 41%
Mode of inhibition (in words) [2]: competitive inhibitors

Phosphate
Inhibition of ACE (in words) [3]: inhibitory

[3H]c1ccc(C(=O)N2CCC[C@H]2C(=O)N[C@@H](Cc2ccccc2)C(=O)N[C@@H](CCCNC(=N)N)C(=O)O)cc1 [^3 H-BenzoylProPheArg, ^3 H-benzoylprolylphenylalanylarginine]
Km ([4]; ^3H-benzoylProPheArg as substrate): 200 µM
Chloride / ionic strength requirement of the ACE-catalyzed hydrolysis ([4]; by substrate): chloride ions and high total ionic strength do not greatly affect the rate
Fraction extracted into ethyl acetate [5]: about 3%

NCC(=O)NCC(=O)O [GlyGly] (H-Gly-Gly-OH)
Product inhibition (in words) [6]: Product inhibition has been observed

O=C(O)[C@@H]1CCCN1C(=O)c1ccccc1 [Benzoylproline]
Fraction extracted into ethyl acetate [5]: about 90%

[3H]c1ccc(C(=O)NCC(=O)O)cc1 [^3 H-Hippuric acid, Hippuric acid (Benzoyl glycine)]
Fraction extracted into ethyl acetate [5]: Approximately 91%

CC[C@H](C)[C@H](NC(=O)[C@H](CCC(N)=O)NC(=O)[C@@H]1CCCN1C(=O)[C@H](CCCNC(=N)N)NC(=O)[C@@H]1CCCN1C(=O)[C@H](Cc1c[nH]c2ccccc12)NC(=O)[C@@H]1CCC(=O)N1)C(=O)N1CCC[C@H]1C(=O)N1CCC[C@H]1C(=O)O [BPP9α (SQ20881)]
remaining activity at 33 µM ([1]; 3.3 × 10^-5 M, read-out: ACE Activity As % of Control): 28%
Δ CPM (counts per minute) ([2]; 2.8 × 10^-9 M, substrate 8 mM): 2200 counts per minute
Δ CPM (counts per minute) ([2]; 9 × 10^-8 M, substrate 8 mM): 1410 counts per minute
remaining activity at 0.0028 µM [2, 7]: 58%
remaining activity at 0.09 µM [2, 7]: 37%

Angiotensin I: decapeptide angiotensin I, having the sequence AspArgValTyrIleHisProPheHisLeu (DRVYIHPFHL; printed: AspArgValTyrIleHisProPheHisLeu)
ACE Activity As % of Control ([1]; 7.1 × 10^-5 M, 71 µM): 27 % of Control
Δ CPM (counts per minute) ([2]; 4.5 × 10^-5 M, substrate 8 mM): 1278 counts per minute
ACE Activity as % of control ([2]; 4.5 × 10^-5 M, substrate 8 mM, 45 µM): 34 % of control
Δ CPM (counts per minute) ([2]; 9 × 10^-6 M, substrate 8 mM): 2557 counts per minute
ACE Activity as % of control ([2]; 9 × 10^-6 M, substrate 8 mM, 9 µM): 67 % of control
Δ CPM (counts per minute) ([2]; 9 × 10^-7 M, substrate 8 mM): 3057 counts per minute
ACE Activity as % of control ([2]; 9 × 10^-7 M, substrate 8 mM, 0.9 µM): 81 % of control
Mode of inhibition (in words) [2]: competitive inhibitors

O=C(O)CN(CCN(CC(=O)O)CC(=O)O)CC(=O)O [EDTA, Ethylene diamine tetraacetic acid]
Inhibition of ACE (in words) [3]: potent inhibitor of ACE
remaining activity at 1000 µM ([1]; 1 × 10^-3 M, read-out: ACE Activity As % of Control): 23%
Δ CPM (counts per minute) [2]: 1178
remaining activity at 900 µM [2, 7]: 31%
